Results on 8 molecules are retold here after ChEMBL document CHEMBL1201862, “PubChem BioAssay data set” (2004).

By EC50 is commonly meant the concentration at which the effect is half-maximal. A word on the IC50: it is the concentration needed to halve the response being measured.

Assay [1] has as its system BJ. The experiment in a line: BJ-TERT fibroblast viability loss – cell-based, RAS-independent, luminescence, dose response (AID 1933). Format: functional. Particulars: Homo sapiens.
In assay [2] the target is T1, Voltage-dependent T-type calcium channel subunit alpha-1H (Homo sapiens, UniProt O95180). Briefly: Inhibitors of T-Type Calcium Channels. [Related pubchem assays (depositor defined):AID449739, AID463087, AID489005, AID493041, AID504579, AID504584, AID504619, AID504628]. Format: functional.
Assay [3] is described as follows: DRD fibroblast viability loss – cell-based, non-viral oncogenic, luminescence, dose response (AID 1934). Particulars: Homo sapiens. The assay is classed as functional.
For assay [4], the system named is BJ. The experiment in a line: cells. The assay is classed as functional, cell-based. Particulars: Homo sapiens.
Assay [5] concerns BJ. The experiment in a line: BJ-TERT-LT-ST fibroblast viability loss – cell-based, RAS-independent, luminescence, dose response (AID 1935).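 Further: BJ fibroblasts immortalized with TERT plus LT and ST oncogenes.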 The following applies: Homo sapiens. The assay is classed as functional.
Assay [6] deals with T1, Voltage-dependent T-type calcium channel subunit alpha-1H. The assay is classed as functional.
A short description of assay [7]: NIH3T3 cell viability loss – ATP luminescence, mouse fibroblasts, counter-screen, dose response (AID 2010).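 Further: cells exposed to compound for about 90 hours before reading.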 The assay is classed as functional, cell-based.
The next assay has as its system HeLa. The experiment in a line: viability loss in HeLa cells – cell-based, 24 h, cherry-picked samples, cytotoxicity control, dose response (AID 504726).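 Further: potency for cytotoxicity as loss of luminescence signal.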 Format: functional. Particulars: Homo sapiens.
The target in assay [8] is FAD-linked sulfhydryl oxidase ALR (Homo sapiens, UniProt P55789). The experiment in a line: ALR-catalysed DTT oxidation blockers – biochemical, H2O2 detection, luminescence, cherry-pick, dose response (AID 493248).
For a further assay, the system named is Salmon testes DNA. The experiment in a line: acridine orange-DNA binding displacement – biochemical, fluorescence polarization, cherry-picked samples, set 2, artefact control for KSHV LANA DNA-binding inhibitor project, dose response (AID 504727). The arrangement: species or system Salmonidae. (In fluorescence polarisation assays a small probe gives low polarisation when free and higher when bound to something large.)

Assay [9] is described as follows: Trypanosoma cruzi growth suppression in host cells – NIH3T3 host cells, beta-gal luminescence, confirmation (AID 2044).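 Further: intracellular parasites grown in NIH/3T3 mouse fibroblasts as host cells; luminescent beta-galactosidase reporter signal from transgenic T. cruzi replicating inside host cells; inhibitors lower the luminescence signal.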 The assay is classed as functional, cell-based.
A further assay has as its target T2, Streptokinase A (Streptococcus pyogenes serotype M1, UniProt P10520).
T2 sequence (P10520 whole entry): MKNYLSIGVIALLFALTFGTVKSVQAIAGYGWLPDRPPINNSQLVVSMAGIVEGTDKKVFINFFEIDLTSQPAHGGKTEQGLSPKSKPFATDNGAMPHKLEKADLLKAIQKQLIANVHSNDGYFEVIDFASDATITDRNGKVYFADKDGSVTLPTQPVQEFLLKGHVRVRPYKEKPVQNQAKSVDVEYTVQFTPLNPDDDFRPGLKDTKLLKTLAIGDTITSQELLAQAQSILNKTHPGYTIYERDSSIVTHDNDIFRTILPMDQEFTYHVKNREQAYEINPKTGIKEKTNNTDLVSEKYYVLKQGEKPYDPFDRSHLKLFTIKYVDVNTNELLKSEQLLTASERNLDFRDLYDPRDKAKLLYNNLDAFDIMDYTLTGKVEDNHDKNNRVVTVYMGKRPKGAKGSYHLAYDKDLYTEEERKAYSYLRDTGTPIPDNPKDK
Briefly: viability-normalized secreted streptokinase activity reduction – plasminogen activation absorbance, OD405, dose response (AID 1914).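 Further: secreted streptokinase activity via plasminogen activation per viability signal from cell pellet.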 Format: functional, Streptococcus pyogenes M1 GAS.

Assay [10] concerns Streptococcus. The experiment in a line: GAS UMAA2166 growth inhibition – luminescence, BacTiterGlo, counter-screen for streptokinase expression inhibitor project, dose response (AID 1915).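 Further: potency for reduction of bacterial viability or growth.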 The assay is classed as functional, organism-based.
Assay [11] relates to Streptococcus sp. 'group A'. Briefly: Streptococcus pyogenes SK(-)GAS viability under kanamycin – luminescence, BacTiterGlo, confirmation, counter-screen for streptokinase expression inhibitor project, dose response (AID 1900). The assay is classed as functional, organism-based. (A counterscreen serves to expose hits that act by an unwanted route or on another target.)
Assay [12] deals with Streptococcus. Briefly: Luminescence Microorganism-Based Dose Response Follow up to Identify Compounds Cytotoxic to Streptococcus. [Related pubchem assays: 1677 (Project Summary), 1915, 1914, 1902 (Retest at Dose), 1900 (Counter Screen), 1662 (Primary HTS)]. Format: functional, organism-based.
The target of assay [13] is Envelope glycoprotein gp160 (Human immunodeficiency virus 1, UniProt Q6QLK5). Briefly: cell-free HIV fusion peptide-binding blockers – biochemical, uHTS, fluorescence dequenching, […] (AID 1986).
A further assay deals with Cytochrome P450 2D6 (Homo sapiens, UniProt P10635). Briefly: qHTS Assay for Inhibitors and Substrates of Cytochrome P450 2D6. [Related pubchem assays: 410 ]. The assay is classed as ADME. The following applies: read-out: Potency. In general terms: Quantitative high-throughput screening tests each substance at several concentrations.
Assay [14] concerns the target Serine/threonine-protein phosphatase (Homo sapiens, UniProt Q9BPW0). The experiment in a line: Counterscreen for inhibitors of PP1: fluorescence-based biochemical high throughput dose response assay to identify inhibitors of Protein Phosphatase 5 (PP5). [Related pubchem assays: 2034 (Summary (PP5 inhibitors)), 1987 (PP5 inhibitors in singlate), 2235 (PP1 inhibitors in singlate)].

In assay [15] the target is Serine/threonine-protein phosphatase PP1-alpha catalytic subunit (Homo sapiens, UniProt P62136). Briefly: inhibition of protein phosphatase 1 activity – biochemical, fluorescence, dose response (AID 2403).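 Further: phosphatase turnover of OMFP into fluorescent 3-O-methylfluorescein.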
The next assay deals with Staphylococcus aureus. The experiment in a line: Inhibitors of Bacterial Quorum Sensing Structure Activity Relationship (SAR) Analysis: Dose Response Assay. [Related pubchem assays: 700, 527 ]. The assay is classed as functional, organism-based.
Assay [16] deals with Melanin-concentrating hormone receptor 1 (Homo sapiens, UniProt Q99705). Briefly: Late-stage fluorescence-based counterscreen for antagonists of the G-protein coupled receptor 7 (GPR7): cell-based dose response assay to identify antagonists of the melanin-concentrating hormone receptor 1 (MCHR1). [Related pubchem assays (depositor defined):AID1861, AID1880, AID1952, AID2148, AID2251, AID2257, AID485339]. The assay is classed as functional.

Assay [17] concerns the target T3, Neuropeptides B/W receptor type 1 (Homo sapiens, UniProt P48145).
T3 sequence (P48145 whole entry): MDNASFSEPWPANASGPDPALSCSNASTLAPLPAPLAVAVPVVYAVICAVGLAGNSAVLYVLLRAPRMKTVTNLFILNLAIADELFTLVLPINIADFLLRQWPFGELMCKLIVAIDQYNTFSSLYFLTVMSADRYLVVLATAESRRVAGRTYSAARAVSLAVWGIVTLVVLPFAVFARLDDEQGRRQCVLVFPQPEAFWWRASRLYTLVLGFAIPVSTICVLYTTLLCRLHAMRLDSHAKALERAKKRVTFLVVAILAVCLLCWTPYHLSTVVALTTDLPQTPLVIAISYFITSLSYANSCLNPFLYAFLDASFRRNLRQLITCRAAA
Briefly: human NPBW1 receptor blockade, IC50 – cell-based, fluorescence, dose response, late-stage follow-up (AID 463251). Format: functional.

SMILES strings stand for the structures. Activity calls are given as the source filed them. Where only a bound is given, the exact number is not on record here.

FAD-linked sulfhydryl oxidase ALR, sequence (P55789 whole entry): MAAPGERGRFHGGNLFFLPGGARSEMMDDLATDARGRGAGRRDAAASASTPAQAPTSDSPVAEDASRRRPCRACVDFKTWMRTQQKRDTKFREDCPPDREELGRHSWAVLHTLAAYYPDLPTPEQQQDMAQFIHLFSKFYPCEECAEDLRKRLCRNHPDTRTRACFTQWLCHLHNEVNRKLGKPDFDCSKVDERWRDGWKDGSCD
T1 sequence (O95180 whole entry): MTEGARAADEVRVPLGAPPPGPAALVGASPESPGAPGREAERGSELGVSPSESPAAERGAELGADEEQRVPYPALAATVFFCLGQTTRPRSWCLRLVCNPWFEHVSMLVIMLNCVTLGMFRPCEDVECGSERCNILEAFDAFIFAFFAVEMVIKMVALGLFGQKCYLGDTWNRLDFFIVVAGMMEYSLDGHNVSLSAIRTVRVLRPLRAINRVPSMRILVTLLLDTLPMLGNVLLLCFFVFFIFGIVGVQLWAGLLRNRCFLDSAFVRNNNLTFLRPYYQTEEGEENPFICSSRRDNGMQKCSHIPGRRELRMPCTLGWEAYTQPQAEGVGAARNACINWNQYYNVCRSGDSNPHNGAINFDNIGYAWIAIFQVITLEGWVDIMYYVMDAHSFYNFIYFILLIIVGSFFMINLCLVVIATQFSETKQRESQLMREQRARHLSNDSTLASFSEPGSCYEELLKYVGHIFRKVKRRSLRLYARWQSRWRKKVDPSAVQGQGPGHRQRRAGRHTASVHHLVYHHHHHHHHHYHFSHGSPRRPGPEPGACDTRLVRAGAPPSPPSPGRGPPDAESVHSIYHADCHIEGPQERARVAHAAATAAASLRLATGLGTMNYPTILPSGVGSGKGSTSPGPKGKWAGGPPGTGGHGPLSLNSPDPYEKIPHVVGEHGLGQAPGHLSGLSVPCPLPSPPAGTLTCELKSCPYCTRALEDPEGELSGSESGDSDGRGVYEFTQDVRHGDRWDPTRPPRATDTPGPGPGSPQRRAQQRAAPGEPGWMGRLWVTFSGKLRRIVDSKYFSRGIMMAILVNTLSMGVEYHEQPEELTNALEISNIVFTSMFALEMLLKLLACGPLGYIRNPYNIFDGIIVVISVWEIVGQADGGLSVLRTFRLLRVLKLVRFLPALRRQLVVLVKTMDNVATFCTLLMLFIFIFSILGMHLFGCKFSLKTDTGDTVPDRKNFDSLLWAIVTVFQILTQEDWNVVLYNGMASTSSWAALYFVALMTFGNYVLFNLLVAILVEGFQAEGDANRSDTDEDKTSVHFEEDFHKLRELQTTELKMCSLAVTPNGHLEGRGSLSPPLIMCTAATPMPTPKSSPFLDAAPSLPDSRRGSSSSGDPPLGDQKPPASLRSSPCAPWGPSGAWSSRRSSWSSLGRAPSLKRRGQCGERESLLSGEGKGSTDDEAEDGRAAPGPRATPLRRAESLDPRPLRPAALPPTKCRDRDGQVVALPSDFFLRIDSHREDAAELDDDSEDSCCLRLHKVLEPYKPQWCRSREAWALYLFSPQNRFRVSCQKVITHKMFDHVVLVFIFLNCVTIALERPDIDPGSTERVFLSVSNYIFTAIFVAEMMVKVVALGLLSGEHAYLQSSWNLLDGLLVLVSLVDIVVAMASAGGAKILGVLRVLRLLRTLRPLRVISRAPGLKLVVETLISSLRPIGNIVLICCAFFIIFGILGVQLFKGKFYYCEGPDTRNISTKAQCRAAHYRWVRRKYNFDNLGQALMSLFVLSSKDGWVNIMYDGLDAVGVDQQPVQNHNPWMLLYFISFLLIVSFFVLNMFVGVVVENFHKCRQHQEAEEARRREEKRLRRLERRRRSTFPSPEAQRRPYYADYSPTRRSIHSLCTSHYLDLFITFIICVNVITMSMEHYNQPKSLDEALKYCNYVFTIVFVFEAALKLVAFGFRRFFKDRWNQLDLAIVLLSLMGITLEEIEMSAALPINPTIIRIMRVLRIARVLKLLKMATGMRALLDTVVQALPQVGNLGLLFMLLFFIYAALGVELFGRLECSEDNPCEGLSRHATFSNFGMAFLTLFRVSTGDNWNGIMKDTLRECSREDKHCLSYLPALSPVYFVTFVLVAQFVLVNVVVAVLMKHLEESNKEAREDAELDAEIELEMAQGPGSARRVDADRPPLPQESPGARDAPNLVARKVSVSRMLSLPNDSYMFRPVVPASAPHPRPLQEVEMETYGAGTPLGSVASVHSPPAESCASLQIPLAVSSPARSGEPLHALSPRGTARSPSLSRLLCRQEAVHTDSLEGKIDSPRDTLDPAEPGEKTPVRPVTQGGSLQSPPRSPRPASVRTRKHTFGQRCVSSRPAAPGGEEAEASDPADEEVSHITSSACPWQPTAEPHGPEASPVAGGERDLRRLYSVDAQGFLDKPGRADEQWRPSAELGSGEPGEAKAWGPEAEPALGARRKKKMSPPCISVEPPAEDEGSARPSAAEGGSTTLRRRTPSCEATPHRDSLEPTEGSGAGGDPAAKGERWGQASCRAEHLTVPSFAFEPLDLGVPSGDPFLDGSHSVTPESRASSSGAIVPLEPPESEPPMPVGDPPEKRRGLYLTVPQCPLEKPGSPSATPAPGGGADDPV
Serine/threonine-protein phosphatase PP1-alpha catalytic subunit, sequence (P62136 whole entry): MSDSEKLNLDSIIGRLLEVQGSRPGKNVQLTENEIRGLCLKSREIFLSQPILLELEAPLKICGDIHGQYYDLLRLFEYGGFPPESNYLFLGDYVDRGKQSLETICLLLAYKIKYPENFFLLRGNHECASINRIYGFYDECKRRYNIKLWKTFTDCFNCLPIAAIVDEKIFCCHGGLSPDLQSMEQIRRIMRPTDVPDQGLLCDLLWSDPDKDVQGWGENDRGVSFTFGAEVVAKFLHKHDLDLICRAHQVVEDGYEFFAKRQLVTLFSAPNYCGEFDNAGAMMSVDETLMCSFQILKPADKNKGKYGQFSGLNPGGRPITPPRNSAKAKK
Envelope glycoprotein gp160, sequence (Q6QLK5 whole entry, the tested form may be a part): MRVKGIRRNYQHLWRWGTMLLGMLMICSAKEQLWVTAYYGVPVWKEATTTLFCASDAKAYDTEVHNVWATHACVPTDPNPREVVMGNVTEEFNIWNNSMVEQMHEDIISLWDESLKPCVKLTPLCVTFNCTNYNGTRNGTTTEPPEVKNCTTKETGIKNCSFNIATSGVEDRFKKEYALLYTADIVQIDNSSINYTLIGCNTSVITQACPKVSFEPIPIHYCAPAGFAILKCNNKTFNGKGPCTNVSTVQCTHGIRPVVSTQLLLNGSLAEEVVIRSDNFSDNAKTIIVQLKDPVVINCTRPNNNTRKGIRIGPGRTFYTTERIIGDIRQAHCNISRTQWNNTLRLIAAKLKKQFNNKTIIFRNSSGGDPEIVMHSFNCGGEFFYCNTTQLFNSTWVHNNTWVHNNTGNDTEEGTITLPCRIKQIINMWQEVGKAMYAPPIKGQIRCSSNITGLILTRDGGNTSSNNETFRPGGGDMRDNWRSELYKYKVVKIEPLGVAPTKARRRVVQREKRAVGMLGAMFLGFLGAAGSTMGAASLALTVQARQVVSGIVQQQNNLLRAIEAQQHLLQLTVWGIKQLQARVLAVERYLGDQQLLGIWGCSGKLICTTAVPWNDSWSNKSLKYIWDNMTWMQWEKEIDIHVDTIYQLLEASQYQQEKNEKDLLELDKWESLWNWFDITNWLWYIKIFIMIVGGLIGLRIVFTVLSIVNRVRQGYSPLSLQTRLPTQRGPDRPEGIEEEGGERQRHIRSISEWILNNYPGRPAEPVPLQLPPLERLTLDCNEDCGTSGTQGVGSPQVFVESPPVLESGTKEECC
Melanin-concentrating hormone receptor 1, sequence (Q99705 whole entry): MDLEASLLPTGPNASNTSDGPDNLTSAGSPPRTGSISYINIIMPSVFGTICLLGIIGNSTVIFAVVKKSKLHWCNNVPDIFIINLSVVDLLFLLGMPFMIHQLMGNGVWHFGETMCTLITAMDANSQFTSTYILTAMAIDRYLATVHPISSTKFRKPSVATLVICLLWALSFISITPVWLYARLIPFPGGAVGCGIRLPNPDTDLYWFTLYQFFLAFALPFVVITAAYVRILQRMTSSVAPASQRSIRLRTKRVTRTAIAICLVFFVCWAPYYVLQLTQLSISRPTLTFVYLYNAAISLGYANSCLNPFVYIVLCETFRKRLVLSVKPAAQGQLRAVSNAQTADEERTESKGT
Cytochrome P450 2D6, sequence (P10635 whole entry): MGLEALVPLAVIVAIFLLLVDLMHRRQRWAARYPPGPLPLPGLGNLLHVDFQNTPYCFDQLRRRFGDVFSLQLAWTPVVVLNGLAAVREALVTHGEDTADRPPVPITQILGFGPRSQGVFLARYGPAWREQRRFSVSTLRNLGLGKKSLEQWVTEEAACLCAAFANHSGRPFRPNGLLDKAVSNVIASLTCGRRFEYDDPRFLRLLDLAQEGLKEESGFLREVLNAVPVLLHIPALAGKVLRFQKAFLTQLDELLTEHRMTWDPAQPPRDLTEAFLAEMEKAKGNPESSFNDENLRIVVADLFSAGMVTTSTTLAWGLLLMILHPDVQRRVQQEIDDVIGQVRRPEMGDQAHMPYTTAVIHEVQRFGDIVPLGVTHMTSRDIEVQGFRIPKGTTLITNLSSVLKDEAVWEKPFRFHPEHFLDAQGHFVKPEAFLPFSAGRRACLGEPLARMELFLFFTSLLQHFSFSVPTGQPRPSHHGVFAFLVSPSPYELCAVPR
Serine/threonine-protein phosphatase, sequence (Q9BPW0 whole entry): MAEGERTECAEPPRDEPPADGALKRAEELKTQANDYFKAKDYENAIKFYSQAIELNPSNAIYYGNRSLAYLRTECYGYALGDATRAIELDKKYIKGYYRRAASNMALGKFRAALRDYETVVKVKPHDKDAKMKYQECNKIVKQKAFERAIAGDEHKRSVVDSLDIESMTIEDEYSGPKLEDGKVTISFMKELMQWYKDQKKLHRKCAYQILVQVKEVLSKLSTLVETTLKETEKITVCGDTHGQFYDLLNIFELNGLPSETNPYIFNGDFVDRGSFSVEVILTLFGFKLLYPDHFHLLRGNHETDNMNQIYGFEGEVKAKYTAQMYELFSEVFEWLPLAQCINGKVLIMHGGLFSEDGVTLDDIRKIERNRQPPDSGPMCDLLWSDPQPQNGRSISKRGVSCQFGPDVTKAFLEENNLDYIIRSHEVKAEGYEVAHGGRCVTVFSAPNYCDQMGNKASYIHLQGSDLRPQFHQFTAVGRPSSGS

With `Clc1ccc(Cn2ncc3c(NCc4ccco4)ncnc32)c(Cl)c1`, the EC50 in the assay with BJ [1] is 9.56 µM (inconclusive); in assay [2], 9.5 µM (active); in assay [3] it was 12.3 µM (inconclusive); in the assay with BJ [4], > 150 µM (not active); in the assay on BJ [5] it was > 150 µM (inconclusive); in assay [6], 1.99 µM (active).

In the case of `NNc1nc(-c2ccccc2)cs1`, the concentration giving a half-maximal response (EC50) was 4.75 µM (active) in [7] and 4.06 µM (active) in assay [9]. The values for the AC50 (with HeLa; in assay [8]; in the assay on Salmon testes DNA) were > 350 µM (inactive), 5.04 µM (active) and 58.7 µM (active), respectively.

Turning to `COc1ccc(Nc2ncnc3scc(-c4ccc(OC)cc4)c23)cc1`, the EC50 is 10.5 µM (active) on Streptokinase A, > 150 µM (not active) with Streptococcus [10], 122 µM (active) in [11] and > 500 µM (not active) with Streptococcus [12].

Turning to `C/C(=C/CCC(C)C1CCC2(C)C3CCC4C(C)(C)C(=O)CCC4(C)C3=CCC12C)C(=O)O` (stereo unspecified), in [13], the IC50 was > 99 µM (inactive).

As for `COC1=C[C@H]2[C@@H]3Cc4ccc(OC)c(O)c4[C@@]2(CCN3C)CC1=O`, the AC50 at Cytochrome P450 2D6 is 20 µM (inconclusive).

Consider `O=S(=O)(Cc1cc(NCc2ccccc2)nc(-c2ccccn2)n1)c1ccccc1`, for which the concentration for half-maximal inhibition (IC50) in [14] was > 67 µM (not active); in [15] it was 7.88 µM (active). Besides, the EC50 was > 150 µM (not active) at Streptokinase A, > 150 µM (not active) in the assay with Streptococcus [10] and 21 µM (active) in assay [11].

For the molecule `COc1c(F)c(F)c(C(=O)O)c(Nc2ccc(C)cc2C)c1F`, the AC50 in assay [8] is 15.9 µM (active). Besides, in the assay on Staphylococcus aureus, the IC50 was 0.579 µM (active).

As to `COC(=O)/C=C/c1cnn(-c2ccc(C(C)C)cc2)c(=O)c1Oc1ccc(OC)cc1`, the IC50 in [16] and in assay [17] was > 20 µM (inactive) throughout.
